Measurements published in patent US20230104487A1, “11-(4-CHLOROPHENYL)-4-(2,3-DIHYDRO-1H-INDOLE-1-CARBONYL)-3,11-DIMETHYL-5,10,DIOXATRICYCLO[7.4.0.0,2,6,]TRIDECA-1,3,6,8-TETRAEN-13-ONE AND DERIVATIVES AS DESTABILIZER OF CRY1 FOR THE TREATMENT OF CIRCADIAN RHYTHM ASSOCIATED DISEASES AND DISORDERS” (KOC UNIVERSITESI, priority 2019, published 2023).

Columns and labels:
[1] = molecular target: T1, CRY2 (Mus musculus, UniProt Q9R194); experiment: Pull-down assay with biotinylated molecule, CRY2-HIS-MYC; format: binding; conditions: 50 μM bFORMULA I, 100 μM FORMULA I competitor
T1 construct: expressed in transfected cells; host or cells: HEK293T (lysate)
T1 sequence (Q9R194 1-592): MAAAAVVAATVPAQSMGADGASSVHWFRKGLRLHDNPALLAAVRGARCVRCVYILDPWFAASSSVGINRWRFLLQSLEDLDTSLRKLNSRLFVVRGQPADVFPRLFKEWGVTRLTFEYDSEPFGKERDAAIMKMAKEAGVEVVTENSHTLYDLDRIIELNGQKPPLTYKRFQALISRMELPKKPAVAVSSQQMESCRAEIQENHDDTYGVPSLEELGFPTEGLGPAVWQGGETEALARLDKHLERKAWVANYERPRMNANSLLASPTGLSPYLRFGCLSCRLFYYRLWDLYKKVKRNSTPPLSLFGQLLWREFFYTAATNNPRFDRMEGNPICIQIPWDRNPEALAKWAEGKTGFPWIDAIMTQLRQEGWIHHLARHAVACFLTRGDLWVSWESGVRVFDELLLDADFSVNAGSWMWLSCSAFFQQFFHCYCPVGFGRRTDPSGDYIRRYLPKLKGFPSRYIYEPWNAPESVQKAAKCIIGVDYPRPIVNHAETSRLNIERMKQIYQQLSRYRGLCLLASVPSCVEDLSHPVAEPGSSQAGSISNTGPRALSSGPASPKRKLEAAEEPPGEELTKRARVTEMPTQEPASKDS
Procedure: (§1) 10 μg of Cry1-pcDNA4, Cry2-pcDNA4 or Cry1-T5-pcDNA4 plasmids expressing His and Myc at the C-terminal of CRYs were transfected to HEK293T cell. After 48 h of transfection cells were harvested and lysed in lysis buffer (50 mM Tris pH 7.4, 2 mM EDTA, 1 mM MgCl2, 0.2% NP-40 (v/v), 0.1% sodium deoxycholate (w/v), 1 mM sodium orthovanadate, 1 mM sodium fluoride, and protease inhibitor cocktail (Thermo Scientific)). Lysates were incubated for 10 minutes on ice then mixed gently and incubated for another 10 minutes on ice. Then lysate was centrifuged for 10 minutes at 7000 g at 4° C. 5% of the supernatant was kept for input analysis. Remaining supernatant was divided to three and mixed with 2×binding buffer (100 mM Tris-HCl pH 7.4, 300 mM NaCl, 0.2% NP-40 (v/v), 2 mM sodium orthovanadate, 2 mM sodium fluoride, and protease inhibitor) with 1:1 ratio, incubated with rotation having either of these: a) DMSO, b) biotinylated molecule, c) biotinylated molecule and the competitor for 2 h. During this period NeutrAvidin Agarose resin (Thermo Scientific) was equilibrated with lysis buffer by mixing for 5 minutes via rotation at 4° C. three times. After each mix period, resins were centrifuged at 2500 g at 4° C. for 2 minutes and supernatant was discarded. […] Pulled-down samples were analyzed via western blot.

[2] = molecular target: T2, CRY1-T5 (PHR domain of CRY1) (Mus musculus, UniProt P97784); experiment: Pull-down assay with biotinylated molecule, CRY1-T5; format: binding; conditions: CRY1 lacking 100 C-terminal amino acids
T2 construct: CRY1-T5 (the lack of 100 amino acids from C-terminal end); expressed in transfected cells; host or cells: HEK293T (lysate)
T2 sequence (P97784 1-506 limits assumed): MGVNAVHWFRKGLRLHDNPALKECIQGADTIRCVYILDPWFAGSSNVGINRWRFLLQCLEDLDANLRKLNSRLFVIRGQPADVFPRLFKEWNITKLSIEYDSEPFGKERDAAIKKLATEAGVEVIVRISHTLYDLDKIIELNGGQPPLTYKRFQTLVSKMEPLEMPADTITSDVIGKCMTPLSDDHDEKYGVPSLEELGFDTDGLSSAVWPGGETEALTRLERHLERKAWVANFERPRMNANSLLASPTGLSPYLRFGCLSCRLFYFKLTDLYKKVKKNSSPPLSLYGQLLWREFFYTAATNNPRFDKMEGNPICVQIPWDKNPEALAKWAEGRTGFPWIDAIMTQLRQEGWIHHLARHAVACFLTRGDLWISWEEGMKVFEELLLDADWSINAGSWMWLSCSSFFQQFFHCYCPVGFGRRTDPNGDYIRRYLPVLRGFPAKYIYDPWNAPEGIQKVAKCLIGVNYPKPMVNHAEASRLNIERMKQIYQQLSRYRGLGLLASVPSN
Procedure: as §1

[3] = tested on: C57BL/6J mice; experiment: Repeated dose toxicity study, 5-day maximum tolerated dose; format: in vivo
Procedure: The single dose toxicity data were used to assist the selection of the doses in this repeated dose toxicity study. C57BL/6J mice (n=6 per group) were treated with 40, 80 or 150 mg/kg doses of FORMULA I intraperitoneally for 5 days. Control mice (n=4) were only treated with vehicle (DMSO:Cremophor EL:0.9% NaCl; 2.5:15:82.5, v/v, i.p.). Throughout the study, animals were monitored for mortality, clinical signs, body weight changes, body temperature, food and water consumptions, behaviour assessment and gross findings at the terminal necropsy. Body weights and body temperatures of mice were measured every day as an index of toxicity. Within 48 h after the last dose of FORMULA I administration, blood was collected from mice by cardiac puncture under isoflurane anesthesia. Hematological and biochemical analyzes were performed in blood. Liver, spleen, kidneys and lungs were removed and fixed in 10% formalin solution for histological examinations.

[4] = 150 mg/kg i.p. for 5 days, 3th day of injection

`Cc1c(C(=O)N2CCc3ccccc32)oc2ccc3c(c12)C(=O)CC(C)(c1ccc(Cl)cc1)O3` (stereo not shown) [FORMULA I, 11-(4-chlorophenyl)-4-(2,3-dihydro-1H-indole-1-carbonyl)-3,11-dimethyl-5,10,dioxatricyclo[7.4.0.0,2,6,]trideca-1,3,6,8-tetraen-13-one] was tested, and the “physical binding to CRY2 (pull-down)” value [1] was “does not bind to CRY2”, the “binding to PHR domain (CRY1-T5 pull-down)” value [2] was “bound to the PHR domain” and the body temperature ([3]; 40 mg/kg i.p. for 5 days) was “comparable to the control animals”. The clinical signs ([3]; 150 mg/kg i.p. for 5 days) was “hyporeflexia”, the deaths [3, 4] was 1/6 and the mortality [3, 4] was 16.6%. For the same molecule, the “highest mean body weight loss” value ([3]; 150 mg/kg i.p., 3rd day of injection) was 6.3%, the clinical signs ([3]; 40 and 80 mg/kg i.p. for 5 days) was “no observed clinical signs” and the “body temperature (mild hypothermia)” value ([3]; 80 and 150 mg/kg i.p., first day) was 33.4-35.8 °C. For the same molecule, the tolerability ([3]; doses of 5 and 80 mg/kg (so in the source), 5 days) was “well-tolerated”.
